Assay: gradient 5% acetonitrile 3 min, to 50% in 2 min, to 85% in 15 min, held 3 min, 100 µL/min
Conditions: column: Zorbax Extend-C18 2.1 x 50 mm; eluents: water / acetonitrile, 0.1% formic acid
Summary of the method: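 A Zorbax Extend-C18 column (2.1 × 50 mm, 1.8 μm) run at 100 μL/min with water and acetonitrile, both containing 0.1% formic acid, separated mixtures of ~100 pure standards. The HPLC was coupled to a quadrupole time-of-flight mass spectrometer operated in positive and negative ionization mode, with dead and dwell volumes of 40 μL and 900 μL. Each retention time was taken from a computationally picked adduct peak that was then manually inspected.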

| Structure (SMILES) | RP-LC retention time |
| --- | --- |
| COc1cc(NC(=O)C2CCN(S(=O)(=O)c3cc(-c4noc(C)n4)cs3)CC2)cc(OC)c1 | 902 s |
| CCSCCOC(=O)C1=C(C)NC2=C(C(=O)CC(C)(C)C2)C1c1ccccn1 (stereo not drawn) | 648 s |
| COc1ccc(C2C(C(=O)NCCN3CCOCC3)c3cc(OC)c(OC)cc3C(=O)N2C)cc1 (stereo not drawn) | 610 s |
| CCn1cnc(S(=O)(=O)N2CCC(C(=O)N3CCN(c4ccc(OC)cc4)CC3)CC2)c1 | 668 s |
| CC(C)n1cc(S(=O)(=O)Nc2cc(F)ccc2Cl)c2cccnc21 | 989 s |
| COc1ccccc1CC(=O)Nc1ccc(-c2nc(Cn3cccn3)c(C)o2)cc1 | 869 s |
| CCOc1ccc(-c2ccc(=O)n(CCNC(=O)c3sc(C)nc3C)n2)cc1 | 672 s |
| CCn1c(=O)c2cc(C(=O)Nc3ccc4c(c3)CCC4)nn2c2ccccc21 | 1090 s |
| O=C(COc1ccc(Cl)cc1Cl)Nc1ccc2c(c1)N(C(=O)C1CC1)CC2 | 987 s |
| Cc1ccc(CNC(=O)C2CCN(S(=O)(=O)c3cn(C(C)C)cn3)CC2)cc1 | 745 s |
| Cc1nnc(N2CCCC(C(=O)NCCCc3ccccc3)C2)c2nn(-c3ccccc3)c(C)c12 (stereo not drawn) | 762 s |
| COCCc1noc([C@@H]2CN(Cc3cccc(Cl)c3)C[C@H]2CO)n1 | 609 s |
| Cc1oc(C2CCN(C(=O)c3ccc(F)c(Cl)c3)CC2)nc1C(=O)N1CCCCC1 | 868 s |
| COc1ccc(OC)c(NC(=O)C(=O)c2c(C)n(C)c3ccccc23)c1 | 990 s |
| CCOc1ccc(C(=O)Nc2cccn3nc(C(C)C)nc23)cc1 | 964 s |
| COc1ccc(-c2cc(C(=O)Nc3ccc(F)cc3)sn2)cc1 | 1090 s |
| Cc1ccc(-n2cccc2CC(=O)NCc2ccc3c(c2)OCO3)cc1 | 946 s |
| CSc1cccc(NC(=O)CN2C(=O)C3CCCCN3c3ccc(C(=O)N4CCCC4)cc32)c1 (stereo not drawn) | 869 s |
| CCCCC(=O)Nc1ccc2nc(N3CCN(c4ccccc4Cl)CC3)cc(C(=O)O)c2c1 | 1010 s |
| CCCNC(=O)CCc1c(-c2ccc(F)cc2)nc2ccccn12 | 608 s |
| Cc1ccc(CNC(=O)C2(C)Cn3cnc(C(=O)NCCc4ccccc4)c3C(=O)N2C2CC2)cc1 (stereo not drawn) | 816 s |
| Cc1sc2ncnc(N3CCCC(C)C3)c2c1C(=O)Nc1ccc(Cl)cc1F (stereo not drawn) | 1330 s |

| Structure (SMILES) | RP-LC retention time |
| --- | --- |
| Cc1ccc2c(c1)NC(=O)C(C(=O)NC1CCCCCCC1)O2 (stereo not drawn) | 895 s |
| Cc1ccc(C2=NC3(CCN(C(=O)c4ccc(F)cc4F)CC3)ON2)cc1 | 855 s |
| O=C(NCc1ccccc1F)c1nc(N2CCOCC2)c2ccccc2n1 | 678 s |
| CCCOc1ccc(CNC(=O)c2snc(C(=O)NCc3cccc(OC)c3)c2N)cc1 | 1140 s |
| CN(CC1CCOCC1)C(=O)NCc1cccc(F)c1 | 684 s |
| CCCNC(=O)N(C1CCOCC1)C1CCN(S(=O)(=O)c2cc(F)ccc2C)CC1 | 897 s |
| Cc1ccc(C)c(NC(=O)CCCN2C(=O)COc3ccc(C)cc32)c1 | 978 s |
| CC(NC(=O)CN1C(=O)CCn2nc(-c3cn(C)c4ccccc34)cc21)c1ccc2c(c1)OCCO2 (stereo not drawn) | 797 s |
| COCCc1noc(-c2nc(-c3ccc(C)cc3)no2)n1 | 1120 s |
| CC(C)NC(=O)CCn1c(=O)c2cc(Cl)ccc2n2c(=O)n(Cc3ccccc3)nc12 | 856 s |
| Cc1ccc(NC(=O)Nc2ccc3nnc(C4CCC4)n3c2)cc1Cl | 870 s |
| CCn1cc(-c2ccc(Cl)cc2)cc1C(=O)NC(C)c1cccnc1 (stereo not drawn) | 758 s |
| Oc1ccc2c3c1O[C@H]1[C@@H](O)CC[C@@]4(O)C(C2)N(CC2CCC2)CCC314 (stereo partly drawn) | 635 s |
| O=C(CCc1c[nH]c2ccccc12)N1CCN(C(=O)c2cc(-c3ccncc3)n[nH]2)CC1 | 807 s |
| COCCN1C(=O)c2cc(-c3ccccc3)nn2CC1(C)C(=O)NCc1ccccc1 (stereo not drawn) | 842 s |
| Cc1cccc(Cn2nc3c(S(=O)(=O)N4CCOCC4)cccn3c2=O)c1 | 777 s |
| O=C(NCCCn1ncccc1=O)c1cccc(-n2ccc3ccccc32)c1 | 770 s |
| CN(C)c1nn(CC(=O)Nc2ccc(Br)cc2)c(=O)c2ccccc12 | 932 s |
| O=C(c1cnccn1)N1CCN(c2nc(-c3ccc(Cl)cc3)no2)CC1 | 828 s |
| CCOC(=O)c1c(S(=O)(=O)N2CCC(C(=O)NC3CCCCCCC3)CC2)c(C)n(C)c1C | 932 s |
| O=C(NC1CCN(c2cc(-c3cccs3)[nH]n2)C1)c1ccc(F)cc1F (stereo not drawn) | 718 s |
| COc1ccc(C2CC(=O)N(c3ccc(C)cc3)C(=O)C2)cc1OC | 831 s |

| Structure (SMILES) | RP-LC retention time |
| --- | --- |
| Cc1cc(-n2nnc(C(=O)N3CCC4(CC3)OCCO4)c2-c2ccncc2)ccc1F | 715 s |
| CC1(C(=O)NC2CCCCCC2)CN(S(C)(=O)=O)CC(=O)N1c1cccc(F)c1 (stereo not drawn) | 835 s |
| CCCCC(=O)N1CCN(C2CCN(CCC(C)C)C2=O)CC1 (stereo not drawn) | 585 s |
| CCOC(=O)C1CCN(c2cc3c(cc2NC(=O)NCCC(C)C)n(C)c(=O)n3C)CC1 | 823 s |
| Cn1nc(-c2nnc(-c3ccc(F)cc3)o2)c2c1CCN(S(=O)(=O)c1cccc3nsnc13)C2 | 910 s |
| N#Cc1ccc(NC(=O)Cn2cccc(-c3nc(-c4ccc(Br)cc4)no3)c2=O)cc1 | 952 s |
| O=C(Nc1ccc2c(c1)N(C(=O)c1cccs1)CC2)c1ccccn1 | 824 s |
| CC(C)(C)c1onc(OCP(=O)(O)O)c1CC(N)C(=O)O (stereo not drawn) | 594 s |
| COCCN1C(=O)CCc2cc(NC(=O)c3ccc(Cl)s3)ccc21 | 958 s |
| Cc1nc(-c2csc(S(=O)(=O)N3CCCC(C(=O)NCCc4cccs4)C3)c2)no1 (stereo not drawn) | 872 s |
| CCc1nn2c(CNC(=O)c3cccc(Br)c3)c(-c3ccccc3)nc2s1 | 1030 s |
| COc1ccc(S(=O)(=O)N2CCCC(C(=O)Nc3ccc(Cl)c(Cl)c3)C2)cc1C (stereo not drawn) | 1180 s |
| Cc1ccc(CNC(=O)Cn2ncc3c(c2=O)N(C2CC2)C(=O)CS3)cc1C | 757 s |
| Cc1nn(C(C)C(=O)NCCCN(C)C2CCCCC2)c(=O)c2nn(-c3ccccc3)c(C)c12 (stereo not drawn) | 656 s |
| Cc1ccccc1Cn1c(CN2CCC(C(=O)NC3CCCCCCC3)CC2)cc2ccccc21 | 934 s |
| CN1C(=O)NC(c2ccccc2C(F)(F)F)C2=C1CN(CCC(=O)N1CCCC1)C2=O (stereo not drawn) | 598 s |
| CCOC(=O)c1c(C)[nH]c(C(=O)N2CCCC(C(=O)NCc3ccccc3OC)C2)c1C (stereo not drawn) | 785 s |
| CCC(=O)Nc1cc(C)n(Cc2ccccc2)n1 | 733 s |
| O=C(NCCCN1CCN(C2CCCCC2)CC1)c1ccc2c(c1)NC(=O)C1CCCCN21 (stereo not drawn) | 576 s |
| CCN1C(=O)Cc2ccccc2C1C(=O)NCCOC (stereo not drawn) | 610 s |
| O=C(c1cn(-c2ccc(-c3nc(C4CC4)no3)cn2)cn1)N1CCCCCC1 | 928 s |
| CCc1nc(OCC(=O)Nc2ccc(C)cc2Br)c2ccccc2n1 | 895 s |

| Structure (SMILES) | RP-LC retention time |
| --- | --- |
| CC(=O)N1CCc2[nH]c3ccc(C(=O)NCc4ccc(N5CCCC5)cc4)cc3c2C1 | 1120 s |
| COC(=O)c1ccc(NC(=O)C2CCCN2S(=O)(=O)c2ccc(F)cc2)cc1 (stereo not drawn) | 641 s |
| CCCOC(=O)Cn1c(=O)oc2cc(S(=O)(=O)N3CCN(c4ccccn4)CC3)ccc21 | 703 s |
| CC(C)NC(=O)N1CCCC(c2cccc(C(=O)NCC3CCCCC3)c2)C1 (stereo not drawn) | 945 s |
| CN(C)c1nn(CC(=O)Nc2ccc(F)cc2Cl)c(=O)c2ccccc12 | 913 s |
| CN1c2cc(Cl)ccc2C(=O)NC12CCN(C(=O)NCc1ccc(F)cc1)CC2 | 820 s |
| COc1cccc(CNC(=O)C2(C)CCCN(C(=O)Nc3cccc(F)c3)C2)c1 (stereo not drawn) | 872 s |
| CCC(=O)Oc1cccc(N2C(=O)c3cccc([N+](=O)[O-])c3C2=O)c1 | 845 s |
| CCOC(=O)c1cn(CC(=O)NCCC(C)C)c2nc(C)ccc2c1=O | 723 s |
| O=C(O)c1ccccc1-c1ccccc1C(=O)Nc1nc2ccccc2s1 | 867 s |
| COCCNC(=O)c1ccc(CS(=O)Cc2ccccc2Cl)o1 (stereo not drawn) | 664 s |
| COc1ccc(CCC(=O)Nc2cnn(-c3ncc(N4CCCC4)cn3)c2)cc1 | 822 s |
| Cn1cc(-c2cc3n(n2)CCCN3C(=O)CCC(=O)NCCN2CCOCC2)c2ccccc21 | 618 s |
| CCOc1cccc(C(=O)Nc2nc(-c3ccc(OC)c(Br)c3)cs2)c1 | 1280 s |
| Cc1ccn2cc(C(=O)NCc3ccc(N(C)C)cc3)nc2c1 | 543 s |
| CCc1ccc(N2CC(c3noc(-c4ccc(OC)c(OC)c4)n3)CC2=O)cc1 (stereo not drawn) | 925 s |
| COc1ccc(OC)c(-c2nnc(NC(=O)CSc3ccc(Cl)cc3)s2)c1 | 947 s |
| CCOc1ccc(S(=O)(=O)N2CCC(C(=O)NC3CCCCC3)CC2)cc1 | 922 s |
| CC(C)c1nc2cc3c(cc2n1CC(=O)Nc1ccccc1)OCCO3 | 674 s |
| O=C(NCc1ccccn1)c1cn(-c2cc(N3CCOCC3)ncn2)cn1 | 581 s |
| CCc1noc(-c2ccc(-n3ncc(C(=O)N(C)C)c3C)nc2)n1 | 748 s |
| CCCCOc1ccc(CNC(=O)C2CCN(C(=O)c3cc4ccsc4[nH]3)CC2)cc1 | 937 s |
